From ChEMBL document CHEMBL4304783, “Discovery of a Novel Selective Dual Peroxisome Proliferator-Activated Receptor α/δ Agonist for the Treatment of Primary Biliary Cirrhosis” (ACS Med Chem Lett, 2019)

Legend:
[1] = Volume of distribution at steady state in C57BL/6J mouse at 1 mg/kg, iv measured upto 24 hrs by LC-MS/MS analysis; type: ADME, organism-based; conditions: in vivo, read-out: Vdss
[2] = Protein binding in human plasma at 2 uM incubated for 4 hrs by LC-MS/MS analysis; type: ADME, cell-free
[3] = Stability in human plasma assessed as remaining compound incubated for 2 hrs; type: ADME, cell-free; conditions: read-out: Stability
[4] = Tmax in Sprague-Dawley rat at 10 mg/kg, po measured upto 24 hrs by LC-MS/MS analysis; type: ADME, organism-based; conditions: in vivo
Cytochrome P450 2C19 = Cytochrome P450 2C19 (Homo sapiens, UniProt P33261); assay: Inhibition of CYP2C19 in human liver microsomes using S-mephenytoin as substrate incubated for 10 mins followed by substrate addition further incubated for 10 mins by LC-MS/MS analysis; type: ADME
[5] = Half life in Sprague-Dawley rat at 1 mg/kg, iv measured upto 24 hrs by LC-MS/MS analysis; type: ADME, organism-based; conditions: in vivo
[6] = Oral bioavailability in C57BL/6J mouse at 10 mg/kg upto 24 hrs by LC-MS/MS analysis; conditions: in vivo
Cytochrome P450 2D6 = Cytochrome P450 2D6 (Homo sapiens, UniProt P10635); assay: Inhibition of CYP2D6 in human liver microsomes using dextromethorphan as substrate incubated for 10 mins followed by substrate addition further incubated for 10 mins by LC-MS/MS analysis; type: ADME
[7] = Cmax in C57BL/6J mouse at 10 mg/kg, po measured upto 24 hrs by LC-MS/MS analysis; type: ADME, organism-based; set-up: dose 10 mg/kg, route oral; conditions: in vivo
Rattus norvegicus = assay: Hepatoprotective activity in Sprague-Dawley rat assessed as reduction in ANIT-stimulated inflammatory score at 3 mg/kg, ig administered for 8 days by hematoxylin and eosin staining based mopho-metric analysis relative to control; type: functional; set-up: scale not given: the % may be the effect or the level left
Cytochrome P450 3A4 = Cytochrome P450 3A4 (Homo sapiens, UniProt P08684); assay: Inhibition of CYP3A4 in human liver microsomes using midazolam as substrate incubated for 10 mins followed by substrate addition further incubated for 10 mins by LC-MS/MS analysis; type: ADME
[8] = AUC (0 to last) in C57BL/6J mouse at 1 mg/kg, iv measured upto 24 hrs by LC-MS/MS analysis; type: ADME, organism-based; set-up: dose 1 mg/kg, time 0 - last, route intravenous; conditions: in vivo
Bile acid receptor = target: T1, Bile acid receptor (Homo sapiens, UniProt Q96RI1); assay: Binding affinity to human recombinant GST-tagged FXR LBD (193-472 residues) expressed in baculovirus infected insect cells incubated for 1 hr by luminometry
T1 sequence (Q96RI1 whole entry): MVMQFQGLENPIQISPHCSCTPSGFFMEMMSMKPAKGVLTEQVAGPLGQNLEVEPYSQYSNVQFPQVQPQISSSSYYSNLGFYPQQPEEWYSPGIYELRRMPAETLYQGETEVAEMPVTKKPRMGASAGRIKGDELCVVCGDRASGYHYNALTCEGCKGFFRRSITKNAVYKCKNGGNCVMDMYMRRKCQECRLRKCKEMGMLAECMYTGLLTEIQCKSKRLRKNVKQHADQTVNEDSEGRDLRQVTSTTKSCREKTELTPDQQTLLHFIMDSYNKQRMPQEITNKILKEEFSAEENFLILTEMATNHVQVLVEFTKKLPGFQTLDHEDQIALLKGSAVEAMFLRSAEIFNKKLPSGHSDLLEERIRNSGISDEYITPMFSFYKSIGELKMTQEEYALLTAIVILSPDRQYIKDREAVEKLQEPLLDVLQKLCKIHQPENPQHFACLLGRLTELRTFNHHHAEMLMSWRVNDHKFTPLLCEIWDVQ

[9] = Clearance in Sprague-Dawley rat at 1 mg/kg, iv measured upto 24 hrs by LC-MS/MS analysis; type: ADME, organism-based; conditions: in vivo
[10] = AUC (0 to last) in C57BL/6J mouse at 10 mg/kg, po measured upto 24 hrs by LC-MS/MS analysis; type: ADME, organism-based; set-up: dose 10 mg/kg, route oral, time 0 - last; conditions: in vivo
[11] = Tmax in C57BL/6J mouse at 10 mg/kg, po measured upto 24 hrs by LC-MS/MS analysis; type: ADME, organism-based; conditions: in vivo
[12] = target: T2, Peroxisome proliferator-activated receptor delta (Homo sapiens) (UniProt Q03181); assay: Agonist activity at PPARbeta (unknown origin) incubated for 3 to 16 hrs by pathhunter nuclear hormone receptor assay relative to L-165,041
T2 sequence (whole entry): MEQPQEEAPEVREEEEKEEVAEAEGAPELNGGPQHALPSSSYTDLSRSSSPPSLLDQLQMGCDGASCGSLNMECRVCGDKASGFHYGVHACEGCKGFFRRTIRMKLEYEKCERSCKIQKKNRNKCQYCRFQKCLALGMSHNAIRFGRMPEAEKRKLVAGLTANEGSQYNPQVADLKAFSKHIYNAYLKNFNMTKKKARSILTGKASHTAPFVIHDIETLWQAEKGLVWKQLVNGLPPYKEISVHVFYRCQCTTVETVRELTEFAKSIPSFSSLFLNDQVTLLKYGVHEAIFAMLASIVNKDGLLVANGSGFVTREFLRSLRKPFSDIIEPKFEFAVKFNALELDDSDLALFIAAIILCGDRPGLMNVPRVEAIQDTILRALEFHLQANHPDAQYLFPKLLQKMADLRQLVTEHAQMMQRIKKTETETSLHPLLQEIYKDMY

[13] = target: T3, Peroxisome proliferator-activated receptor alpha (Homo sapiens) (UniProt Q07869); assay: Agonist activity at PPARalpha (unknown origin) incubated for 3 to 16 hrs by pathhunter nuclear hormone receptor assay relative to GW7647; set-up: concentration or dose not given beside the values
T3 sequence (whole entry): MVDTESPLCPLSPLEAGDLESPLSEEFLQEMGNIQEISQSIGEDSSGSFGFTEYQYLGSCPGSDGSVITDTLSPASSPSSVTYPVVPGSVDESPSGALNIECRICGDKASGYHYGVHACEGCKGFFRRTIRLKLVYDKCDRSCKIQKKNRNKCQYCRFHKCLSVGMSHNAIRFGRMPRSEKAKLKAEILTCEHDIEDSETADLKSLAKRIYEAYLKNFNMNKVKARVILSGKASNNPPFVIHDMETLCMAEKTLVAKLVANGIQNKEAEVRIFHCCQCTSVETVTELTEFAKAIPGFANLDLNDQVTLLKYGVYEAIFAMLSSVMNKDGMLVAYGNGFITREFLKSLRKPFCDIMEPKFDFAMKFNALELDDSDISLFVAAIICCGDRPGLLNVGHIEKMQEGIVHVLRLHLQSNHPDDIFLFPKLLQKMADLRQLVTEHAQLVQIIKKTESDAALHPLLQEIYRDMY

[14] = AUC (0 to last) in Sprague-Dawley rat at 1 mg/kg, iv measured upto 24 hrs by LC-MS/MS analysis; type: ADME, organism-based; set-up: dose 1 mg/kg, route intravenous, time 0 - last; conditions: in vivo
[15] = Protein binding in rat plasma at 2 uM incubated for 4 hrs by LC-MS/MS analysis; type: ADME, cell-free
[16] = Efflux ratio of apparent permeability across basolateral to apical over apical to basolateral side in human Caco2 cells at 2 uM incubated for 120 mins by LC-MS/MS analysis; type: ADME, cell-based; conditions: Caco-2
[17] = Half life in C57BL/6J mouse at 1 mg/kg, iv measured upto 24 hrs by LC-MS/MS analysis; type: ADME, organism-based; conditions: in vivo
[18] = Stability in rat plasma assessed as remaining compound incubated for 2 hrs; type: ADME, cell-free; conditions: read-out: Stability

Cytochrome P450 2C19, sequence (P33261 whole entry): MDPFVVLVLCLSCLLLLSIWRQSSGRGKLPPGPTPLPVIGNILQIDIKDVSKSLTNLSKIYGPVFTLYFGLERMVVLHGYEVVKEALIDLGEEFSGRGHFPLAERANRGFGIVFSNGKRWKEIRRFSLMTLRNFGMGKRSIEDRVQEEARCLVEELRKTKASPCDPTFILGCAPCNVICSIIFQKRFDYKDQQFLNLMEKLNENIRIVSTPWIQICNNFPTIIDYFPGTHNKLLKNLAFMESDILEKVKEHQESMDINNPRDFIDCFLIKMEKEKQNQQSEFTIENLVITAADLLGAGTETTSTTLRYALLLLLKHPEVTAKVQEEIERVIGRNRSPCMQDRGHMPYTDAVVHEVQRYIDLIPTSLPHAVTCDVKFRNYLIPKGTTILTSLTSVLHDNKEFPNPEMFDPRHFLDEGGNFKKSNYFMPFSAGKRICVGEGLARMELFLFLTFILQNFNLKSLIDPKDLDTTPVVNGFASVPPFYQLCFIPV
Cytochrome P450 3A4, sequence (P08684 whole entry): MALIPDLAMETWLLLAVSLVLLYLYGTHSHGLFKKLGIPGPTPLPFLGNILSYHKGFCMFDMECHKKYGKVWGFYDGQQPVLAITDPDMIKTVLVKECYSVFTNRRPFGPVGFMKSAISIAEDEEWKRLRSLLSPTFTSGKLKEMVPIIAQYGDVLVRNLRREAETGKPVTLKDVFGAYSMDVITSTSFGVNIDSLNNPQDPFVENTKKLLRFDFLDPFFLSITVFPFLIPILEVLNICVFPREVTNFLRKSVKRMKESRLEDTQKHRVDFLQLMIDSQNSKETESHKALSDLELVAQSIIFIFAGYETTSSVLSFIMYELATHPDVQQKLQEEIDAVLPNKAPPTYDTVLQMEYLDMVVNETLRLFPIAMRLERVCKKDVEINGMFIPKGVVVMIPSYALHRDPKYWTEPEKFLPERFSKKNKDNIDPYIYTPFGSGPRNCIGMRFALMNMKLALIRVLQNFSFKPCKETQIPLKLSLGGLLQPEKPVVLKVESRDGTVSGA
Cytochrome P450 2D6, sequence (P10635 whole entry): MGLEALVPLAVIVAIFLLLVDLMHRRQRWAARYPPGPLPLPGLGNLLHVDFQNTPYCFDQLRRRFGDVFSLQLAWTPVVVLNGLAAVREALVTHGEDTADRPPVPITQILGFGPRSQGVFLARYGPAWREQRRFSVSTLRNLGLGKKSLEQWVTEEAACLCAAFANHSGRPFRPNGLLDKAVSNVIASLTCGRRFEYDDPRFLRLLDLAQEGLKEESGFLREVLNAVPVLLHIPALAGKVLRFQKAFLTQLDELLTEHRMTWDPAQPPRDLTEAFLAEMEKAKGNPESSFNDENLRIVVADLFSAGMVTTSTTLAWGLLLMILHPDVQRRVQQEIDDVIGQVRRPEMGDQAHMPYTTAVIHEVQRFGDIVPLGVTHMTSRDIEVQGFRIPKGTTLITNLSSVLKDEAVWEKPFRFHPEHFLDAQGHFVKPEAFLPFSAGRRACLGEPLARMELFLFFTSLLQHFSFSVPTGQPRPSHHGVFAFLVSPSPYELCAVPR

In the case of Cc1cc(Cc2cc(-c3ccc(Br)cc3)on2)cc(C)c1OC(C)(C)C(=O)O, the Vd [1] is reported as 0.53 L/kg, the fraction unbound at 4 h, 2 µM [2] is reported as < 0.001 and the remaining at 2 h [3] is reported as 88%. The Tmax [4] was 1.33 h, the IC50 (Cytochrome P450 2C19) was > 50 µM and the half-life [5] was 6 h. The bioavailability [6] was 59.8%, the IC50 (Cytochrome P450 2D6) was > 50 µM and the Cmax [7] was 52 µM. For the same molecule, the Activity (Rattus norvegicus) was 30%, the IC50 (Cytochrome P450 3A4) was > 50 µM and the AUC(0-t) at 24 h [8] was 10.6 µM·h. The IC50 (Bile acid receptor) was > 50 µM, the clearance [9] was 0.35 mL/min/kg and the AUC(0-t) at 24 h [10] was 63.2 µM·h. For the same molecule, the Tmax [11] was 0.33 h, the Activity [12] was 79% and the Activity [13] was 92%. For the same molecule, the AUC(0-t) at 24 h [14] was 105 µM·h, the fraction unbound at 4 h, 2 µM [15] was < 0.001 and the efflux ratio at 2 h, 2 µM [16] was 0.4. For the same molecule, the half-life [17] was 3.6 h and the remaining at 2 h [18] was 96%.
